From patent US20250154144A1 (CHILDREN'S HOSPITAL MEDICAL CENTER, priority 2021, published 2025) come the findings set out here.

Where a chain is given by its changes, count along the chain named. pIC50, pKd: −log10 of the molar value. Where two headings read alike, the source gives them in different places.

The target in one experiment is T1, FLT3 D835Y (Homo sapiens, UniProt P36888, D835Y).
T1 construct: purchased DiscoverX (KINOMEscan)
T1 sequence (P36888 27-993 D835Y): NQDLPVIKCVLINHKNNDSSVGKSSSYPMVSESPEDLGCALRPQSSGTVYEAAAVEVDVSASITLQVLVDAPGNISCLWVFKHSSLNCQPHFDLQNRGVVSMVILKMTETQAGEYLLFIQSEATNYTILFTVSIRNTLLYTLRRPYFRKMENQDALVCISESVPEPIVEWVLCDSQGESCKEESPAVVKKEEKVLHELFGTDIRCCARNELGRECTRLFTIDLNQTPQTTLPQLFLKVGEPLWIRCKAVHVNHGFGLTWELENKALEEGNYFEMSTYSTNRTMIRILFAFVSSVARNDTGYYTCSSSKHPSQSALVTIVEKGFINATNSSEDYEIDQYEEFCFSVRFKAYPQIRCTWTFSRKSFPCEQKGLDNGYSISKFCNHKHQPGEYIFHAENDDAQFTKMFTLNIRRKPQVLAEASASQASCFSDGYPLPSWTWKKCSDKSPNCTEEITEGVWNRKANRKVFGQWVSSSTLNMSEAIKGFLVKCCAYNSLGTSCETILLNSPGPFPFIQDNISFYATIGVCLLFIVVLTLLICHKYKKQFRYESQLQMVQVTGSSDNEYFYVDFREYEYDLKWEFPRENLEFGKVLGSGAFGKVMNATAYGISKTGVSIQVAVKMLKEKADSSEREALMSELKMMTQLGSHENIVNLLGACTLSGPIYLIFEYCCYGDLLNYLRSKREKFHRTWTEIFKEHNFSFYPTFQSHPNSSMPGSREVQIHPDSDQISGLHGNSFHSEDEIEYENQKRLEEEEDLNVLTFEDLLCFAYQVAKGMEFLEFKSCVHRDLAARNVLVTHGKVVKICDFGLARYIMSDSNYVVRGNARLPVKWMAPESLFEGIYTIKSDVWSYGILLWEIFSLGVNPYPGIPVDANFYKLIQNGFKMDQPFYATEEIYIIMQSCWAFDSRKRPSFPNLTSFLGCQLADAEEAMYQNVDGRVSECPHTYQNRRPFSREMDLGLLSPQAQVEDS
The experiment can be described thus: DiscoverX KINOMEscan competition binding, FLT3 D835Y.

The next experiment concerns the target IRAK1 (Homo sapiens, UniProt P51617). As to the kind of experiment: DiscoverX KINOMEscan competition binding, IRAK1. Also noted: purchased RBC (Reaction Biology) HotSpot assay.
For another experiment, the target named is T2, IRAK4 (Homo sapiens, UniProt Q9NWZ3).
T2 sequence (Q9NWZ3 1-460): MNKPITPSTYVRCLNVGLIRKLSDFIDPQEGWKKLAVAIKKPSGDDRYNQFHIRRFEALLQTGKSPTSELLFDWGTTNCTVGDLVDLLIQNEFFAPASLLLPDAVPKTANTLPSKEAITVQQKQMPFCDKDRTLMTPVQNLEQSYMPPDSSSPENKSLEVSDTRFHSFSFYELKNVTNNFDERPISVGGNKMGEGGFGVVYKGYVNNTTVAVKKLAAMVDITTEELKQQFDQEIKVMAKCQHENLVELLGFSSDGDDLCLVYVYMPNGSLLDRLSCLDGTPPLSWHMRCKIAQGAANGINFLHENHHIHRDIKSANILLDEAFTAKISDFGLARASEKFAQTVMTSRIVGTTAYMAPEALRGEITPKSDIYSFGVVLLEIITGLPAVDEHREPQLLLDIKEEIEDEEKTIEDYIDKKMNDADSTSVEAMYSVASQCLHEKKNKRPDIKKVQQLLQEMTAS
As to the kind of experiment: DiscoverX KINOMEscan competition binding, IRAK4. Also on record: purchased RBC (Reaction Biology) HotSpot assay.

Experiment [1] has as its target T3, FLT3 (Homo sapiens, UniProt P36888).
T3 sequence (P36888 27-993): T1 sequence (P36888 27-993 D835Y) with Y809D
The experiment can be described thus: Reaction Biology NanoBRET target engagement assay in HEK-293 cells, FLT3. (In general: In BRET a luciferase serves as donor, and the signal depends on an acceptor being close.)

Experiment [2] has as its target T3, FLT3. The experiment can be described thus: DiscoverX KINOMEscan competition binding, FLT3. Also on record: using full-length kinases in the presence of cellular concentrations of ATP in live, uncompromised cells.
[3] abbreviates: NanoBRET FLT3 IC50, HEK-293 cells.

Chain of IRAK1 (P51617 whole entry): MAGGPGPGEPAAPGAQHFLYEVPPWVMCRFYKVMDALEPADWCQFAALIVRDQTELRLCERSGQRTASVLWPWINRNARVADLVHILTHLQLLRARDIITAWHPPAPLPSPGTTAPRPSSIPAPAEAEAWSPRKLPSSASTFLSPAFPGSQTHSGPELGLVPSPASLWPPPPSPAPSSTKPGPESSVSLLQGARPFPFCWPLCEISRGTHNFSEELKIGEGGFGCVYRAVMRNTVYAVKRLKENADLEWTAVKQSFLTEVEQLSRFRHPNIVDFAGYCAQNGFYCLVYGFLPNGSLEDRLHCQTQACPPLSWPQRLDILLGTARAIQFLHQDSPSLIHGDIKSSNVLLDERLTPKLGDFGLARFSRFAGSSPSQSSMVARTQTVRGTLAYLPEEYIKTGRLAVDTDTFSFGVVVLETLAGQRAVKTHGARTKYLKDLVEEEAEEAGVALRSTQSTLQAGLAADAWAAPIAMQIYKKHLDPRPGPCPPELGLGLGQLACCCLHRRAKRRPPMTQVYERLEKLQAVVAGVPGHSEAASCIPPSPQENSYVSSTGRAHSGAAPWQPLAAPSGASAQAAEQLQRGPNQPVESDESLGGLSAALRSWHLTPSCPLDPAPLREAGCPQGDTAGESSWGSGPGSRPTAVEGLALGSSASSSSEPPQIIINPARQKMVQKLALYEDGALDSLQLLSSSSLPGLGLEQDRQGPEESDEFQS

The term pKd denotes the negative decadic logarithm of the Kd, by convention in mol/L. What is called pIC50 is the IC50 on a negative log10 scale, so that one unit is a factor of ten. `COc1cc2ncc(-c3cncc(N[C@H]4CNCC[C@@H]4F)n3)n2nc1C1CC1` [Compound 24, 6-(6-cyclopropyl-7-methoxyimidazo[1,2-b]pyridazin-3-yl)-N-((3S,4S)-4-fluoropiperidin-3-yl)pyrazin-2-amine]: the pKd on FLT3 D835Y is 9.13; on IRAK1 it was 8.28; at IRAK4, 9.66; at FLT3 [2] it was 9.72. This compound also showed a pIC50 against FLT3 [1] (setting [3]) of 7.72.
Consider `COc1cc2ncc(-c3cncc(N[C@H]4CNC[C@@H]4F)n3)n2nc1C1CC1` [Compound 22, 6-(6-cyclopropyl-7-methoxyimidazo[1,2-b]pyridazin-3-yl)-N-((3S,4S)-4-fluoropyrrolidin-3-yl)pyrazin-2-amine], for which the pKd on FLT3 D835Y was 9.22; at IRAK1, 8.19; on IRAK4, 9.08; on FLT3 [2], 8.74. The pIC50 against FLT3 [1] was 6.49.
As for `COc1cc2ncc(-c3ccnc(N[C@H]4CNC[C@@H]4F)n3)n2nc1C1CC1` [Compound 49, 4-(6-cyclopropyl-7-methoxyimidazo[1,2-b]pyridazin-3-yl)-N-((3S,4S)-4-fluoropyrrolidin-3-yl)pyrimidin-2-amine], the pKd on FLT3 D835Y was 9.39; at IRAK1, 8.59; on IRAK4 it was 9.25; at FLT3 [2], 9.59.
With `CC(O)(c1cn2c(-c3ccnc(N[C@H]4CNCC[C@@H]4F)n3)cnc2cn1)C(F)(F)F` (single isomer, unassigned) [Compound 72], the pKd was 9.16 at FLT3 D835Y, 8.82 on IRAK1, 9.42 on IRAK4 and 8.28 on FLT3 [2]. On FLT3 [1] (setting [3]), this compound gave a pIC50 of 6.00.
Turning to `F[C@H]1CCNC[C@@H]1Nc1cncc(-c2cnc3cc(OC4CC4)ccn23)n1` [Compound 12, 6-(7-cyclopropoxyimidazo[1,2-a]pyridin-3-yl)-N-((3S,4S)-4-fluoropiperidin-3-yl)pyrazin-2-amine], the negative logarithm of the Kd (pKd) on FLT3 D835Y is 8.96; at IRAK1, 8.12; at IRAK4, 9.09; on FLT3 [2], 8.72. The same compound had a pIC50 against FLT3 [1] (setting [3]) of 6.75.
As for `COc1cc2ncc(-c3ccnc(N[C@@H]4CCCNC4)n3)n2cc1C(C)(C)O` [Compound 44, (R)-2-(7-methoxy-3-(2-(piperidin-3-ylamino)pyrimidin-4-yl)imidazo[1,2-a]pyridin-6-yl)propan-2-ol], the pKd is 9.82 at FLT3 D835Y, 9.52 at IRAK1, 10.14 at IRAK4 and 9.55 at FLT3 [2]. The pIC50 at FLT3 [1] (setting [3]) is 7.74.
On the same counts, the results for `COc1cc2ncc(-c3ccnc(N[C@H]4CNCC[C@@H]4F)n3)n2nc1C1CC1` [Compound 51, 4-(6-cyclopropyl-7-methoxyimidazo[1,2-b]pyridazin-3-yl)-N-((3S,4S)-4-fluoropiperidin-3-yl)pyrimidin-2-amine] are 9.46, 8.62, 9.24, 9.66 and 8.05.
